ChEMBL document CHEMBL2406902, “Potent and Orally Bioavailable GPR142 Agonists as Novel Insulin Secretagogues for the Treatment of Type 2 Diabetes” (ACS Med Chem Lett, 2013)
The source made the active and inactive calls. The rule behind the calls is not given here.

Assays:
[1] = molecular target: T1, Probable G-protein coupled receptor 142 (Homo sapiens, UniProt Q7Z601); assay: Agonist activity at human GPR142 transfected in HEK293 cells after 1 hr by inositol phosphate accumulation assay; type: functional, cell-based
T1 sequence (Q7Z601 whole entry): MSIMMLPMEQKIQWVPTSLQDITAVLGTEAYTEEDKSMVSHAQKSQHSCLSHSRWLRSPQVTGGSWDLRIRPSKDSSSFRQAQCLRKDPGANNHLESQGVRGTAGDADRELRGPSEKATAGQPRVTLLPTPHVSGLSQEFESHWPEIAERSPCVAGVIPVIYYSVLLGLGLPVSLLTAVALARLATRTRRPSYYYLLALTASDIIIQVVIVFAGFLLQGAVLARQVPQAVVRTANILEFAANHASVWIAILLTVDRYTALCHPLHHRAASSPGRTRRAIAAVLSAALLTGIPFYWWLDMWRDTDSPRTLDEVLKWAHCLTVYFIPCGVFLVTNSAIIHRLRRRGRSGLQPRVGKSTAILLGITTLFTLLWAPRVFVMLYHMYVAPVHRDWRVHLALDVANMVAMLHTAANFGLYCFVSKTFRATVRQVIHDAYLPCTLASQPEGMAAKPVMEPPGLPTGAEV

[2] = Metabolic stability in mouse liver microsomes assessed as compound remaining at 1 uM after 15 mins by LC/MS analysis; type: ADME, Microsome; settings: read-out: Stability
[3] = Permeability of the compound at pH 5 by PAMPA; type: ADME; settings: read-out: permeability
[4] = Metabolic stability in human liver microsomes assessed as compound remaining at 1 uM after 30 mins by LC/MS analysis; type: ADME, Microsome; settings: read-out: Stability
[5] = Permeability of the compound at pH 7.4 by PAMPA; type: ADME; settings: read-out: permeability
[6] = Metabolic stability in rat liver microsomes assessed as compound remaining at 1 uM after 30 mins by LC/MS analysis; type: ADME, Microsome; settings: read-out: Stability
[7] = Metabolic stability in monkey liver microsomes assessed as compound remaining at 1 uM after 30 mins by LC/MS analysis; type: ADME, Macaca mulatta, Microsome; settings: rhesus monkey, read-out: Stability
[8] = Metabolic stability in human liver microsomes assessed as compound remaining at 1 uM after 15 mins by LC/MS analysis; type: ADME, Microsome; settings: read-out: Stability
Mus musculus [9] = assay: Antidiabetic activity in C57BL/6J mouse assessed as decrease in blood glucose level at 10 mg/kg administered 30 mins followed by glucose challenge by OGTT; type: functional, organism-based; design: dose 10 mg/kg
Cynomolgus monkey [10] = assay: Antidiabetic activity in cynomolgus monkey having impaired glucose tolerance assessed as decrease in blood glucose level at 10 mg/kg administered 60 mins for once a week followed by glucose challenge by OGTT; type: functional, organism-based; design: dose 10 mg/kg; settings: Macaca fascicularis
[11] = Half life in monkey at 1 mg/kg, po; type: ADME, organism-based, Macaca mulatta; design: dose 1 mg/kg, route oral; settings: rhesus monkey, in vivo
Cynomolgus monkey [12] = assay: Antidiabetic activity in cynomolgus monkey having impaired glucose tolerance assessed as decrease in blood glucose level at 10 mg/kg, po administered 60 mins for once a week followed by glucose challenge by OGTT; type: functional, organism-based; design: dose 10 mg/kg; settings: Macaca fascicularis
[13] = Clearance in monkey at 0.5 mg/kg, iv; type: ADME, organism-based, Macaca mulatta; design: dose 0.5 mg/kg, route intravenous; settings: rhesus monkey, in vivo
Mus musculus [14] = assay: Antidiabetic activity in po dosed C57BL/6J mouse assessed as decrease in blood glucose level administered 30 mins followed by glucose challenge by OGTT; type: functional
Cynomolgus monkey [15] = assay: Antidiabetic activity in po dosed cynomolgus monkey having impaired glucose tolerance assessed as decrease in blood glucose level administered 60 mins for once a week followed by glucose challenge by OGTT; type: functional, organism-based; settings: Macaca fascicularis
[16] = Volume of distribution at steady state in monkey at 0.5 mg/kg, iv; type: ADME, organism-based, Macaca mulatta; design: dose 0.5 mg/kg, route intravenous; settings: rhesus monkey, in vivo, read-out: Vdss
[17] = Oral bioavailability in monkey at 1 mg/kg; type: ADME, organism-based, Macaca mulatta; settings: rhesus monkey, in vivo
Mus musculus [18] = assay: Antidiabetic activity in po bolus dosed ob/ob mouse assessed as increase in plasma insulin level after 15 to 20 mins; type: functional, organism-based
Cytochrome P450 3A4 = Cytochrome P450 3A4 (Homo sapiens, UniProt P08684); assay: Inhibition of CYP3A4 (unknown origin); type: ADME
Sequence of Cytochrome P450 3A4 (P08684 whole entry): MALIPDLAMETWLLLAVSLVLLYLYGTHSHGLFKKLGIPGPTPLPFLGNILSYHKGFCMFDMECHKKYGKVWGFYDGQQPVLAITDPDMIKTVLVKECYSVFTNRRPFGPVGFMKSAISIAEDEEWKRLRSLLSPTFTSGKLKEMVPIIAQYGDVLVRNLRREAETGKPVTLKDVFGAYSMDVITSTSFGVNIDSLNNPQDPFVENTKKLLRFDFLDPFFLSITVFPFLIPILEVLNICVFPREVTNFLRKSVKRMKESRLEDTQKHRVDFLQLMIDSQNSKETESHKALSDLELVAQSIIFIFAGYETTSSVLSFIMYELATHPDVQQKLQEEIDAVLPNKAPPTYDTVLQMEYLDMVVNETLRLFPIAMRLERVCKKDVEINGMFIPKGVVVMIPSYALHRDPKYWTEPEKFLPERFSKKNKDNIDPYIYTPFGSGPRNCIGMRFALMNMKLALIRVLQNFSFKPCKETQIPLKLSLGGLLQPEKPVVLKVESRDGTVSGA

[19] = Lipophilicity, log D of the compound at pH 7.4; type: physicochemical; settings: buffer
Pancreatic islet [20] = assay: Antidiabetic activity in rat primary pancreatic islets assessed as potentiation of insulin secretion under high glucose condition at 1 to 100 uM after 60 mins; type: functional
Mus musculus [21] = assay: Antidiabetic activity in sc dosed mouse assessed as improvement of glucose tolerance; type: functional, organism-based
Pancreatic islet [22] = assay: Antidiabetic activity in rat primary pancreatic islets assessed as potentiation of insulin secretion under low glucose condition at 1 to 100 uM after 60 mins; type: functional

Structure (SMILES): CCCc1c(C(=O)NCc2cn(C)cn2)cnn1-c1ncc(C)c(-c2cccs2)n1
- EC50 ([1]; read-out: EC50): 15000 nM
- remaining at 0.25 h, 1 µM [2]: 4.7%

Structure (SMILES): CCCc1c(C(=O)NCc2ccncc2)cnn1-c1ncc(C)c(-c2cccs2)n1
- EC50 ([1]; read-out: EC50): 250 nM
- remaining at 0.25 h, 1 µM [2]: 1%

Structure (SMILES): CCCCCc1c(C(=O)NCc2ccncc2)cnn1-c1ncc(C)c(-c2cccs2)n1
- EC50 ([1]; read-out: EC50): 1000 nM

Structure (SMILES): CCc1c(C(=O)NCc2ccncc2)cnn1-c1ncc(C)c(-c2cccs2)n1
- EC50 ([1]; read-out: EC50): 1000 nM

Structure (SMILES): CCOCc1c(C(=O)NCc2cncn2C)cnn1-c1ncc(C)c(OCC)n1
- Papp [3]: 1.2 ×10⁻⁶ cm/s
- EC50 ([1]; read-out: EC50): 96 nM
- remaining at 0.5 h, 1 µM [4]: 77%
- Papp [5]: 2.9 ×10⁻⁶ cm/s
- remaining at 0.5 h, 1 µM [6]: 77%
- remaining at 0.5 h, 1 µM [7]: 66%

Structure (SMILES): CCCCc1c(C(=O)NCc2cnc(C)n2C)cnn1-c1ncc(C)c(-c2cccs2)n1
- EC50 ([1]; read-out: EC50): 30 nM
- remaining at 0.25 h, 1 µM [2]: 6%
- remaining at 0.25 h, 1 µM [8]: 20%

Structure (SMILES): CCCCc1c(C(=O)NC2CCCc3ncn(C)c32)cnn1-c1ncc(C)c(-c2cccs2)n1 (stereo not given)
- EC50 ([1]; read-out: EC50): 100 nM
- remaining at 0.25 h, 1 µM [2]: 5%
- remaining at 0.25 h, 1 µM [8]: 22%

Structure (SMILES): N[C@@H](CC(=O)N1CCn2c(nnc2C(F)(F)F)C1)Cc1cc(F)c(F)cc1F
- Activity (Mus musculus [9]): Active
- Activity (Cynomolgus monkey [10]): Active

Structure (SMILES): CCOCc1c(C(=O)NCc2cncn2C)cnn1-c1ncc(C)c(NC2CCC2)n1
- Papp [3]: 0.2 ×10⁻⁶ cm/s
- EC50 ([1]; read-out: EC50): 25 nM
- remaining at 0.5 h, 1 µM [4]: 87%
- Papp [5]: 1.6 ×10⁻⁶ cm/s
- remaining at 0.5 h, 1 µM [7]: 68%

Structure (SMILES): CCOCc1c(C(=O)NCc2cncn2C)cnn1-c1ncc(C)c(N2CCCCC2)n1
- half-life [11]: 1.2 h
- Activity (Cynomolgus monkey [12]): Active
- clearance [13]: 16.7 mL/min/kg
- Activity (Mus musculus [14]): Dose-dependent effect
- ED50 (Mus musculus [14]; 0.5 h): 3.3 mg/kg
- Papp [3]: 1.5 ×10⁻⁶ cm/s
- Activity (Cynomolgus monkey [15]): Dose-dependent effect
- Vd [16]: 0.77 L/kg
- bioavailability [17]: 26%
- EC50 ([1]; read-out: EC50): 22 nM
- remaining at 0.5 h, 1 µM [4]: 88%
- Papp [5]: 3.5 ×10⁻⁶ cm/s
- remaining at 0.5 h, 1 µM [6]: 53%
- Activity (Mus musculus [18]): Dose-dependent effect
- remaining at 0.5 h, 1 µM [7]: 61%
- IC50 (Cytochrome P450 3A4): 1000 nM

Structure (SMILES): CCOCc1c(C(=O)NCc2cncn2C)cnn1-c1ncc(C)c(-c2cccs2)n1
- Papp [3]: 2 ×10⁻⁶ cm/s
- EC50 ([1]; read-out: EC50): 1.3 nM
- remaining at 0.5 h, 1 µM [4]: 71%
- Papp [5]: 4 ×10⁻⁶ cm/s
- remaining at 0.5 h, 1 µM [7]: 34%
- logD [19]: 2.2

Structure (SMILES): CCCCc1c(C(=O)NCc2cncn2CC(=O)O)cnn1-c1ncc(C)c(-c2cccs2)n1
- EC50 ([1]; read-out: EC50): 0.2 nM
- remaining at 0.25 h, 1 µM [2]: 93%

Structure (SMILES): CCC(C)c1c(C(=O)NCc2ccncc2)cnn1-c1ncc(C)c(-c2cccs2)n1 (stereo not given)
- EC50 ([1]; read-out: EC50): 1200 nM

Structure (SMILES): COCc1c(C(=O)NCc2ccncc2)cnn1-c1ncc(C)c(-c2cccs2)n1
- clearance [13]: 21.7 mL/min/kg
- Vd [16]: 1 L/kg
- bioavailability [17]: 3.9%
- EC50 ([1]; read-out: EC50): 1500 nM
- Activity (Pancreatic islet [20]): Active
- Activity (Mus musculus [21]): Active
- remaining at 0.25 h, 1 µM [2]: 3%
- Activity (Pancreatic islet [22]): inactive

Structure (SMILES): CCCCc1c(C(=O)NCc2c[nH]c3ccccc23)cnn1-c1ncc(C)c(-c2cccs2)n1
- EC50 ([1]; read-out: EC50): > 20000 nM

Structure (SMILES): CCCCc1c(C(=O)NCc2ccncc2)cnn1-c1ncc(C)c(-c2cccs2)n1
- EC50 ([1]; read-out: EC50): 7 nM

Structure (SMILES): CCCc1c(C(=O)NCc2cc(C)no2)cnn1-c1ncc(C)c(-c2cccs2)n1
- EC50 ([1]; read-out: EC50): > 20000 nM
- remaining at 0.25 h, 1 µM [2]: 11%

Structure (SMILES): CCCCc1c(C(=O)NCc2ccnn2C)cnn1-c1ncc(C)c(-c2cccs2)n1
- EC50 ([1]; read-out: EC50): 90 nM
- remaining at 0.25 h, 1 µM [2]: 13%

Structure (SMILES): CCOCc1c(C(=O)NCc2cncn2C)cnn1-c1ncc(C)c(N2CCC2)n1
- Papp [3]: 0.2 ×10⁻⁶ cm/s
- EC50 ([1]; read-out: EC50): 28 nM
- remaining at 0.5 h, 1 µM [4]: 76%
- Papp [5]: 1.6 ×10⁻⁶ cm/s
- remaining at 0.5 h, 1 µM [7]: 78%

Structure (SMILES): CCOCc1c(C(=O)NCc2ccncc2)cnn1-c1ncc(C)c(-c2cccs2)n1
- EC50 ([1]; read-out: EC50): 30 nM

Structure (SMILES): CCCCc1c(C(=O)NCc2c(C)ncn2C)cnn1-c1ncc(C)c(-c2cccs2)n1
- EC50 ([1]; read-out: EC50): 1 nM
- remaining at 0.25 h, 1 µM [8]: 19%

Structure (SMILES): CCCc1c(C(=O)NC(C)(C)c2ccncc2)cnn1-c1ncc(C)c(-c2cccs2)n1
- EC50 ([1]; read-out: EC50): 5 nM
- remaining at 0.25 h, 1 µM [2]: 2%

Structure (SMILES): CCCc1c(C(=O)N(CC)Cc2ccncc2)cnn1-c1ncc(C)c(-c2cccs2)n1
- EC50 ([1]; read-out: EC50): 3000 nM
- remaining at 0.25 h, 1 µM [2]: 0%

Structure (SMILES): CCCCc1c(C(=O)NCc2sc(C)nc2C)cnn1-c1ncc(C)c(-c2cccs2)n1
- EC50 ([1]; read-out: EC50): 200 nM
- remaining at 0.25 h, 1 µM [2]: 10%

Structure (SMILES): CCCCc1c(C(=O)NCc2cncn2C)cnn1-c1ncc(C)c(-c2cccs2)n1
- Papp [3]: 3.6 ×10⁻⁶ cm/s
- EC50 ([1]; read-out: EC50): 1 nM
- remaining at 0.5 h, 1 µM [4]: 74%
- Papp [5]: 8 ×10⁻⁶ cm/s
- remaining at 0.5 h, 1 µM [6]: 54%
- remaining at 0.25 h, 1 µM [2]: 56%
- remaining at 0.5 h, 1 µM [7]: 40%
- remaining at 0.25 h, 1 µM [8]: 70%

Structure (SMILES): CCOCc1c(C(=O)NCc2cncn2C)cnn1-c1ncc(C)c(N2CCCC2)n1
- Papp [3]: 0.8 ×10⁻⁶ cm/s
- EC50 ([1]; read-out: EC50): 14 nM
- remaining at 0.5 h, 1 µM [4]: 69%
- Papp [5]: 3.1 ×10⁻⁶ cm/s
- remaining at 0.5 h, 1 µM [6]: 66%
- remaining at 0.5 h, 1 µM [7]: 46%
- logD [19]: 2

Structure (SMILES): CCCCc1c(C(=O)NCc2ccc(F)cc2)cnn1-c1ncc(C)c(-c2cccs2)n1
- EC50 ([1]; hek293): Not Active
- remaining at 0.25 h, 1 µM [2]: 2%
